Laboratory results as given in ChEMBL document CHEMBL3832046, “DailyMed|setid=1da7847b-16e4-4bf1-957f-3894d023b339 | VIAGRA - sildenafil citrate tablet, film coated|PD-Rx Pharmaceuticals, Inc”.

What was measured:
Homo sapiens = test: (§1) Pharmacokinetic parameters for Sildernafil following oral administration of Sildernafil citrate tablets (Viagra).; assay type: ADME, organism-based; conditions: in vivo, po, dosed compound id 36, dosed compound name SILDERNAFIL CITRATE, tissue Plasma
[1] = as §1; assay type: ADME, organism-based; conditions: human, in vivo, dosed compound id 36, dosed compound name SILDERNAFIL CITRATE, tissue Plasma

Vss (Homo sapiens): 105 L | Tmax ([1]; dietary status Fasting): 1 h | bioavailability [1]: 41%
Structure (SMILES): CCCc1nn(C)c2c(=O)[nH]c(-c3cc(S(=O)(=O)N4CCN(C)CC4)ccc3OCC)nc12.O=C(O)CC(O)(CC(=O)O)C(=O)O [SILDENAFIL CITRATE]
